In patent publication US20140350273A1, “PEDIATRIC USES OF CABAZITAXEL” (AVENTIS PHARMA S.A., priority 2012, published 2014):
Read-outs that look alike come from different tables or passages of the source.

Tested on: human osteosarcoma DM113
Type: in vivo
Settings: for Tumor Volume Data (Day 28) Median / ΔT/ΔC %: day 28; for MTTE / T-C: volume endpoint 1600 mm^3
Description: The resultant solution contains 10 mg/mL of cabazitaxel. Stock solution of cabazitaxel was then diluted in 0.9% sodium chloride.
This efficacy may be quantified, for example, as changes in tumor volume for each treated (T) and control (C) group, which are calculated for each animal and each day by subtracting the tumor volume on the day of first treatment (staging day) from the tumor volume on the specified observation day. This allows calculating the tumor growth inhibition: ΔT/ΔC=(median delta T/median delta C)×100. Individual tumor volume changes from baseline are thereafter analyzed by a non-parametric two-way ANOVA-TYPE (with factors: group and repeated days) followed by a post-hoc contrasts analysis, with Bonferroni-Holm adjustment for multiplicity, comparing all treated groups to the control group. […] A probability less than 5% (p<0.05) was considered as significant.
Based on the National Cancer Institute (NCl) standards, a ΔT/ΔC≦40% is the minimal level required to declare activity.
This efficacy may also be quantified by the number of tumor regressions observed after therapy. Individual mice reporting a tumor volume ≦50% of the Day 0 measurement for two consecutive measurements over a seven day period were considered partial responders (PR). Individual mice lacking palpable tumors (<4×4 mm^2 for two consecutive measurements over a seven day period) were classified as complete responders (CR); a CR that persisted until study completion was considered a tumor-free survivor (TFS).
Efficacy could also be determined at study completion, using tumor growth delay (T-C) in days, which is calculated using the median time to endpoint (MTTE) value for each treatment (T) group versus control (C). A Log Rank multiple comparison test with Bonferroni-Holm adjustment for multiplicity was applied on individual TTE to compare the treated groups to the control group.
The animals subjected to the experiment are subcutaneously grafted unilaterally with approximately 30 mg of a tumor fragment from low passage pediatric patient-derived tumor xenografts. The animals are implanted with a human patient-derived pediatric tumor xenografted in immuno-compromised mice (Harlan; nu/nu). Several days post tumor implantation, mice are randomized according to their tumor burden to the different groups of treatments and controls. The agents are dosed intravenously at 5.8, 9.3, 15 or 24.2 mg/kg every 4 days for a total of 3 doses (q4d×3) to mice bearing a tumor burden at start of therapy (day 0) ranged from 125 to 250 mm^3.
Beginning Day 0, animals were observed daily and weighed twice weekly using a digital scale; data including individual and mean gram weights (Mean We±SD), mean percent weight change versus Day 0 were recorded for each group. Animal deaths were recorded daily and designated as drug-related (D), technical (T), tumor related (B), or unknown (U) based on weight loss and gross observation; single agent or combination groups reporting a mean >20% for a period of 7 days and/or >10% mortality were considered above the maximum tolerated dose (MTD) for that treatment on the evaluated regimen.
The selected tumor model, DM113, was a low passage patient-derived tumor xenograft derived from an osteosarcoma taken from the lung of a patient.
The following end points were used: • Toxicity was declared at dosages inducing ≧20% body weight loss or ≧10% drug death; • Antitumor efficacy was determined by calculating the ΔT/ΔC value in percent on day 28 post treatment initiation, according to the above mentioned formula; • Individual tumor volume changes from baseline were analyzed by a non-parametric two-way ANOVA-TYPE (with factors: group and repeated day from 3 to 28) followed by a post-hoc contrasts analysis, with Bonferroni-Holm adjustment for multiplicity, comparing all treated groups to the control group on day 28. […] The volume endpoint for T-C calculations was chosen to be 1600 mm^3.

CO[C@H]1C(=O)[C@]2(C)[C@@H](OC)C[C@H]3OC[C@@]3(OC(C)=O)[C@H]2[C@H](OC(=O)c2ccccc2)[C@]2(O)C[C@H](OC(=O)[C@H](O)[C@@H](NC(=O)OC(C)(C)C)c3ccccc3)C(C)=C1C2(C)C [Cabazitaxel, 4α-acetoxy-2α-benzoyloxy-5β,20-epoxy-1β-hydroxy-7β,10β-dimethoxy-9-oxo-11-taxen-13α-yl (2R,3S)-3-tert-butoxycarbonyl-amino-2-hydroxy-3-phenylpropionate]
#CR (5.8 mg/kg i.v./q4dx3): 0/0/0
#PR (5.8 mg/kg i.v./q4dx3): 0/0/0
#TFS (5.8 mg/kg i.v./q4dx3): 0/0/0
Drug Deaths Total (5.8 mg/kg i.v./q4dx3): 0
Tumor Volume Data (Day 28) Median (5.8 mg/kg i.v./q4dx3): 512.5 mm^3
ΔT/ΔC % (5.8 mg/kg i.v./q4dx3): 29.4%
MTTE (5.8 mg/kg i.v./q4dx3): 47 days
T-C (5.8 mg/kg i.v./q4dx3): 16 days
tumor volume changes from baseline, Median +/− MAD (5.8 mg/kg, DAY 3): 58 +/− 21.5
tumor volume changes from baseline, Median +/− MAD (5.8 mg/kg, DAY 8): 63.5 +/− 37
tumor volume changes from baseline, Median +/− MAD (5.8 mg/kg, DAY 11): 63.5 +/− 21.5
tumor volume changes from baseline, Median +/− MAD (5.8 mg/kg, DAY 14): 95 +/− 41.5
tumor volume changes from baseline, Median +/− MAD (5.8 mg/kg, DAY 17): 95 +/− 59
tumor volume changes from baseline, Median +/− MAD (5.8 mg/kg, DAY 21): 158.5 +/− 39.5
tumor volume changes from baseline, Median +/− MAD (5.8 mg/kg, DAY 24): 234 +/− 83.5
tumor volume changes from baseline, Median +/− MAD (5.8 mg/kg, DAY 28): 334.5 +/− 96
tumor volume changes from baseline, Median +/− MAD (5.8 mg/kg, DAY 31): 459.5 +/− 123
tumor volume changes from baseline, Median +/− MAD (5.8 mg/kg, DAY 35): 579.5 +/− 228
tumor volume changes from baseline, Median +/− MAD (5.8 mg/kg, DAY 38): 834.5 +/− 245
tumor volume changes from baseline, Median +/− MAD (5.8 mg/kg, DAY 42): 1097 +/− 248
tumor volume changes from baseline, Median +/− MAD (5.8 mg/kg, DAY 46): 1548.5 +/− 438.5
#CR (9.3 mg/kg i.v./q4dx3): 0/0/0
#PR (9.3 mg/kg i.v./q4dx3): 0/0/0
#TFS (9.3 mg/kg i.v./q4dx3): 0/0/0
Drug Deaths Total (9.3 mg/kg i.v./q4dx3): 0
Weight Nadir % (9.3 mg/kg i.v./q4dx3): −3%
Weight Nadir Day (9.3 mg/kg i.v./q4dx3): 3
Tumor Volume Data (Day 28) Median (9.3 mg/kg i.v./q4dx3): 204 mm^3
ΔT/ΔC % (9.3 mg/kg i.v./q4dx3): 1.8%
MTTE (9.3 mg/kg i.v./q4dx3): >59 days
T-C (9.3 mg/kg i.v./q4dx3): >28 days
tumor volume changes from baseline, Median +/− MAD (9.3 mg/kg, DAY 3): 29.5 +/− 27
tumor volume changes from baseline, Median +/− MAD (9.3 mg/kg, DAY 8): 29.5 +/− 29.5
tumor volume changes from baseline, Median +/− MAD (9.3 mg/kg, DAY 11): 29.5 +/− 29.5
tumor volume changes from baseline, Median +/− MAD (9.3 mg/kg, DAY 14): 9 +/− 9
tumor volume changes from baseline, Median +/− MAD (9.3 mg/kg, DAY 17): 0 +/− 0
tumor volume changes from baseline, Median +/− MAD (9.3 mg/kg, DAY 21): 0 +/− 9
tumor volume changes from baseline, Median +/− MAD (9.3 mg/kg, DAY 24): 0 +/− 31
tumor volume changes from baseline, Median +/− MAD (9.3 mg/kg, DAY 28): 20 +/− 39.5
tumor volume changes from baseline, Median +/− MAD (9.3 mg/kg, DAY 31): 69 +/− 69
tumor volume changes from baseline, Median +/− MAD (9.3 mg/kg, DAY 35): 87.5 +/− 70.5
tumor volume changes from baseline, Median +/− MAD (9.3 mg/kg, DAY 38): 182 +/− 155.5
tumor volume changes from baseline, Median +/− MAD (9.3 mg/kg, DAY 42): 311 +/− 248
tumor volume changes from baseline, Median +/− MAD (9.3 mg/kg, DAY 46): 576 +/− 317.5
#CR (15 mg/kg i.v./q4dx3): 0
#PR (15 mg/kg i.v./q4dx3): 4
#TFS (15 mg/kg i.v./q4dx3): 0
Drug Deaths Total (15 mg/kg i.v./q4dx3): 0
Weight Nadir % (15 mg/kg i.v./q4dx3): −9%
Weight Nadir Day (15 mg/kg i.v./q4dx3): 14
Tumor Volume Data (Day 28) Median (15 mg/kg i.v./q4dx3): 131 mm^3
ΔT/ΔC % (15 mg/kg i.v./q4dx3): −4.4%
MTTE (15 mg/kg i.v./q4dx3): >59 days
T-C (15 mg/kg i.v./q4dx3): >28 days
numbers of PR (15 mg/kg q4d×3 IV): 4/10
tumor volume changes from baseline, Median +/− MAD (15 mg/kg, DAY 3): 13 +/− 13
tumor volume changes from baseline, Median +/− MAD (15 mg/kg, DAY 8): 0 +/− 0
tumor volume changes from baseline, Median +/− MAD (15 mg/kg, DAY 11): −23.5 +/− 23.5
tumor volume changes from baseline, Median +/− MAD (15 mg/kg, DAY 14): −40.5 +/− 30
tumor volume changes from baseline, Median +/− MAD (15 mg/kg, DAY 17): −40.5 +/− 30
tumor volume changes from baseline, Median +/− MAD (15 mg/kg, DAY 21): −40.5 +/− 30
tumor volume changes from baseline, Median +/− MAD (15 mg/kg, DAY 24): −50 +/− 36.5
tumor volume changes from baseline, Median +/− MAD (15 mg/kg, DAY 28): −50 +/− 36.5
tumor volume changes from baseline, Median +/− MAD (15 mg/kg, DAY 31): −53 +/− 36.5
tumor volume changes from baseline, Median +/− MAD (15 mg/kg, DAY 35): −59.5 +/− 29
tumor volume changes from baseline, Median +/− MAD (15 mg/kg, DAY 38): −59.5 +/− 39.5
tumor volume changes from baseline, Median +/− MAD (15 mg/kg, DAY 42): −59.5 +/− 39.5
tumor volume changes from baseline, Median +/− MAD (15 mg/kg, DAY 46): −59.5 +/− 42.5
#CR (24.2 mg/kg i.v./q4dx3): 0
#PR (24.2 mg/kg i.v./q4dx3): 5
#TFS (24.2 mg/kg i.v./q4dx3): 0
Drug Deaths Total (24.2 mg/kg i.v./q4dx3): 0
Weight Nadir % (24.2 mg/kg i.v./q4dx3): −11%
Weight Nadir Day (24.2 mg/kg i.v./q4dx3): 11
Tumor Volume Data (Day 28) Median (24.2 mg/kg i.v./q4dx3): 112 mm^3
ΔT/ΔC % (24.2 mg/kg i.v./q4dx3): −3.6%
MTTE (24.2 mg/kg i.v./q4dx3): >59 days
T-C (24.2 mg/kg i.v./q4dx3): >28 days
numbers of PR (24.2 mg/kg q4d×3 IV): 5/10
tumor volume changes from baseline, Median +/− MAD (24.2 mg/kg, DAY 3): 9.5 +/− 9.5
tumor volume changes from baseline, Median +/− MAD (24.2 mg/kg, DAY 8): 0 +/− 26.5
tumor volume changes from baseline, Median +/− MAD (24.2 mg/kg, DAY 11): −40.5 +/− 34
tumor volume changes from baseline, Median +/− MAD (24.2 mg/kg, DAY 14): −43.5 +/− 28.5
tumor volume changes from baseline, Median +/− MAD (24.2 mg/kg, DAY 17): −40.5 +/− 24.5
tumor volume changes from baseline, Median +/− MAD (24.2 mg/kg, DAY 21): −40.5 +/− 24.5
tumor volume changes from baseline, Median +/− MAD (24.2 mg/kg, DAY 24): −40.5 +/− 40.5
tumor volume changes from baseline, Median +/− MAD (24.2 mg/kg, DAY 28): −40.5 +/− 40.5
tumor volume changes from baseline, Median +/− MAD (24.2 mg/kg, DAY 31): −40.5 +/− 34
tumor volume changes from baseline, Median +/− MAD (24.2 mg/kg, DAY 35): −51 +/− 41.5
tumor volume changes from baseline, Median +/− MAD (24.2 mg/kg, DAY 38): −51 +/− 41.5
tumor volume changes from baseline, Median +/− MAD (24.2 mg/kg, DAY 42): −51 +/− 41.5
tumor volume changes from baseline, Median +/− MAD (24.2 mg/kg, DAY 46): −51 +/− 41.5
antitumor activity compared with docetaxel (conclusion of example 5, 9.3, 15 and 24.2 mg/kg dose levels): higher efficacy than docetaxel
